BindingDB's records for doi:10.1016/j.bmcl.2014.03.095 (University of Utah, 2014)

Biological target: Elongin-B/Elongin-C/von Hippel-Lindau disease tumor suppressor (Homo sapiens, UniProt P40337+Q15370+Q15369)
Experiment: Displacement of FAM-DEALAHyp-YIPD from 6xHis-tagged VHL (1 to 213)/elongins-B/elonginC (unknown origin) expressed in Escherichia coli BL21 after 1 min by fluorescence polarization assay

Sequence of Elongin-B/Elongin-C/von Hippel-Lindau disease tumor suppressor (P40337 whole entry, looked up): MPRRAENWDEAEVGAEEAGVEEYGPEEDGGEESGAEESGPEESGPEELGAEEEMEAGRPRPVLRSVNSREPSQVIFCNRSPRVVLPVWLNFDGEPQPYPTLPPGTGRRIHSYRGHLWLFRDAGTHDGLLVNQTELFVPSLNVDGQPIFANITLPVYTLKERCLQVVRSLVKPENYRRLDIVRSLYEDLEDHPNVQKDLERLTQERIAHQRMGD
Sequence of Elongin-B/Elongin-C/von Hippel-Lindau disease tumor suppressor (Q15369 whole entry, looked up): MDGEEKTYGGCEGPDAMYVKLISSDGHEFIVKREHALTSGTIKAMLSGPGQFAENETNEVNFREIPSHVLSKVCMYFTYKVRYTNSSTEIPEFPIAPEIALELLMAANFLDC
Sequence of Elongin-B/Elongin-C/von Hippel-Lindau disease tumor suppressor (Q15370 whole entry, looked up): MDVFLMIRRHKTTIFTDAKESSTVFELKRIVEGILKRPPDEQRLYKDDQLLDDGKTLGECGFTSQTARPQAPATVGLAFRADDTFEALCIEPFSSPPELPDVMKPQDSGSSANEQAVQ

In the case of `Cc1cc(CC(=O)N2C[C@H](O)C[C@H]2C(=O)NCc2cccc(Cl)c2)on1`, the IC50 is reported as 117 µM.
